# Experiments:
# Assay type in all cases: biochemical
# TYK2 = TYK2 (Homo sapiens (Human), UniProt P29597); experiment: JAK Caliper Enzyme Assay at 1 mM ATP, TYK2
# Procedure, shortened: (§1)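 Peptide phosphorylation by recombinant human kinase domain, 1 mM ATP, room temperature, EDTA-terminated, detected by microfluidic mobility shift; % effect normalised to DMSO baseline.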
# JAK1 = JAK1 (Homo sapiens (Human), UniProt P23458); experiment: JAK Caliper Enzyme Assay at 1 mM ATP, JAK1
# Procedure, shortened: (§2)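 Recombinant human kinase domains phosphorylate a fluorescent synthetic peptide at 1 mM ATP, room temperature, with enzyme and time tuned for 20-30% conversion; EDTA-stopped. Product/substrate separated by microfluidic mobility shift; percent effect versus DMSO and positive controls fitted to IC50 (nM).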
# JAK2 = JAK2 (Homo sapiens (Human), UniProt O60674); experiment: JAK Caliper Enzyme Assay at 1 mM ATP, JAK2
# JAK2, sequence (O60674 849-1124): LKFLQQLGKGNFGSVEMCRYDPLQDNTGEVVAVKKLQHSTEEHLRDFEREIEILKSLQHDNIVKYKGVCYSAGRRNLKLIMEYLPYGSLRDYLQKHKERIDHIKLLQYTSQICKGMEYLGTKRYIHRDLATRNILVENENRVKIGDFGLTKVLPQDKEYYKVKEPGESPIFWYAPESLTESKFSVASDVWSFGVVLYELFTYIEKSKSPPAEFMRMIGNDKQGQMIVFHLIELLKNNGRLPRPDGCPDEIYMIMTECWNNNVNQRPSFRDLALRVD
# Procedure, shortened: as §1
# JAK3 = JAK3 (Homo sapiens (Human), UniProt P52333); experiment: JAK Caliper Enzyme Assay at 1 mM ATP, JAK3
# JAK3, sequence (P52333 822-1111): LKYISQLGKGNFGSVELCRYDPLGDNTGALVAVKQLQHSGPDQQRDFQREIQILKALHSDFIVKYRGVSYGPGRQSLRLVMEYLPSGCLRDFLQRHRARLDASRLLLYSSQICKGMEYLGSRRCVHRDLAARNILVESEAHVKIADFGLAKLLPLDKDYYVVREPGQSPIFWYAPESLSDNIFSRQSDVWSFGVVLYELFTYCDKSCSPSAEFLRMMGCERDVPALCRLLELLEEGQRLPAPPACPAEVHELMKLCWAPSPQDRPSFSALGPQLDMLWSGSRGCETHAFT
# Procedure, shortened: as §2
# JAK1, sequence (P23458 875-1153): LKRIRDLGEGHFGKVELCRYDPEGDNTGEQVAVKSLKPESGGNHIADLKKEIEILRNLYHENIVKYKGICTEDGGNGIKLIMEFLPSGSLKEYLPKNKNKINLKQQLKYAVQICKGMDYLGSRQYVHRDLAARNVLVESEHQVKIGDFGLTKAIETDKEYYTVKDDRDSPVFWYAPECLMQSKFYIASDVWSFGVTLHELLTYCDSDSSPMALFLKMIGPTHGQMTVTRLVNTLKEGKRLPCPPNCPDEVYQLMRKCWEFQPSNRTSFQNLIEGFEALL
# TYK2, sequence (P29597 897-1176): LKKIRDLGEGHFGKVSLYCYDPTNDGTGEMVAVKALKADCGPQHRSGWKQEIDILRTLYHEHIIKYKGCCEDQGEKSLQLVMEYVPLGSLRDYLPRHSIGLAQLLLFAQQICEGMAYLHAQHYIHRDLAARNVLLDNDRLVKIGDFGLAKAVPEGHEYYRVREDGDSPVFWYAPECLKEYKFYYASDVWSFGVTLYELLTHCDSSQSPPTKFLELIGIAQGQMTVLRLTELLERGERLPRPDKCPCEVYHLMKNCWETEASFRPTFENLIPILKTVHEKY
SMILES,IC50 (TYK2),IC50 (JAK1),IC50 (JAK2),IC50 (JAK3)
"N#CCC1(n2ccc(-c3nc(-c4ccncc4)cc4ncccc34)n2)CN(CC(F)(F)F)C1 [Example 172, [3-{3-[7-(pyridin-4-yl)-1,6-naphthyridin-5-yl]-1H-pyrazol-1-yl}-1-(2,2,2-trifluoroethyl)azetidin-3-yl]acetonitrile]",27 nM,608 nM,388 nM,> 10000 nM
"Cc1cncc(-c2cc3ncccc3c(-c3ccn(C4(CC#N)CN(CC(F)(F)F)C4)n3)n2)c1 [Example 173, [3-{3-[7-(5-methylpyridin-3-yl)-1,6-naphthyridin-5-yl]-1H-pyrazol-1-yl}-1-(2,2,2-trifluoroethyl)azetidin-3-yl]acetonitrile]",1880 nM,> 10000 nM,7880 nM,> 10000 nM
"Cc1cc(-c2cc3ncccc3c(-c3ccn(C4(CC#N)CN(S(C)(=O)=O)C4)n3)n2)ccn1 [Example 174, [3-{3-[7-(2-methylpyridin-4-yl)-1,6-naphthyridin-5-yl]-1H-pyrazol-1-yl}-1-(methylsulfonyl)azetidin-3-yl]acetonitrile]",49 nM,785 nM,332 nM,> 10000 nM
"Cc1ccc(-c2cc3ncccc3c(-c3ccn(C4(CC#N)CN(S(C)(=O)=O)C4)n3)n2)cn1 [Example 175, [3-{3-[7-(6-methylpyridin-3-yl)-1,6-naphthyridin-5-yl]-1H-pyrazol-1-yl}-1-(methylsulfonyl)azetidin-3-yl]acetonitrile]",135 nM,5740 nM,1180 nM,> 10000 nM
"Cc1cc(-c2cc3ncccc3c(-c3ccn(C4(CC#N)CN(CC(F)(F)F)C4)n3)n2)ccn1 [Example 176, [3-{3-[7-(2-methylpyridin-4-yl)-1,6-naphthyridin-5-yl]-1H-pyrazol-1-yl}-1-(2,2,2-trifluoroethyl)azetidin-3-yl]acetonitrile]",71 nM,966 nM,634 nM,> 10000 nM
"Cc1ccc(-c2cc3ncccc3c(-c3ccn(C4(CC#N)CN(CC(F)(F)F)C4)n3)n2)cn1 [Example 177, [3-{3-[7-(6-methylpyridin-3-yl)-1,6-naphthyridin-5-yl]-1H-pyrazol-1-yl}-1-(2,2,2-trifluoroethyl)azetidin-3-yl]acetonitrile]",58 nM,2610 nM,794 nM,> 10000 nM

# Continued, values first:
IC50 (TYK2),IC50 (JAK1),IC50 (JAK2),IC50 (JAK3),SMILES
56 nM,1430 nM,399 nM,> 10000 nM,"CS(=O)(=O)N1CC(CC#N)(n2ccc(-c3nc(-c4cnc5c(c4)NCCN5)cc4ncccc34)n2)C1 [Example 170, [1-(methylsulfonyl)-3-{3-[7-(1,2,3,4-tetrahydropyrido[2,3-b]pyrazin-7-yl)-1,6-naphthyridin-5-yl]-1H-pyrazol-1-yl}azetidin-3-yl]acetonitrile]"
1370 nM,> 10000 nM,6780 nM,> 10000 nM,"N#CCC1(n2ccc(-c3nc(-c4cncc(F)c4)cc4ncccc34)n2)CN(CC(F)(F)F)C1 [Example 178, [3-{3-[7-(5-fluoropyridin-3-yl)-1,6-naphthyridin-5-yl]-1H-pyrazol-1-yl}-1-(2,2,2-trifluoroethyl)azetidin-3-yl]acetonitrile]"
285 nM,> 10000 nM,9670 nM,> 10000 nM,"N#CCC1(n2ccc(-c3nc(-c4ccncc4F)cc4ncccc34)n2)CN(CC(F)(F)F)C1 [Example 179, [3-{3-[7-(3-fluoropyridin-4-yl)-1,6-naphthyridin-5-yl]-1H-pyrazol-1-yl}-1-(2,2,2-trifluoroethyl)azetidin-3-yl]acetonitrile]"
40 nM,853 nM,123 nM,> 10000 nM,"N#CC[C@]1(n2ccc(-c3nc(-c4cccc(O)n4)cc4ncccc34)n2)C[C@@H](C#N)C1 [Example 181, cis-3-(cyanomethyl)-3-{3-[7-(6-hydroxypyridin-2-yl)-1,6-naphthyridin-5-yl]-1H-pyrazol-1-yl}cyclobutanecarbonitrile]"
